Reference: patent US10588317B2, “Isoxazoline-substituted benzamides and analogues as insecticides” (priority 2015, dated 2020)

Legend:
Assay type in all cases: in vivo
[1] = system: Diabrotica balteata; experiment: Diabrotica balteata (corn root worm), sprayed maize sprouts; conditions: 96 h, application rate 200 ppm, L2 larvae, 4 days after infestation, read-out: effect in at least one of the two categories (mortality or growth inhibition)
Method in brief: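 Maize sprouts on agar sprayed with aqueous dilutions of DMSO stocks, dried, then infested with L2 larvae (6–10 per well). Mortality and growth inhibition scored against untreated controls 4 days after infestation, at 200 ppm application rate.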

[2] = system: Euschistus heros; experiment: Euschistus heros (neotropical brown stink bug), sprayed soybean leaves; conditions: 120 h, application rate 200 ppm, N2 nymphs, 5 days after infestation, read-out: effect in at least one of the two categories (mortality or growth inhibition)
Method in brief: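 Soybean leaves on agar sprayed with aqueous dilutions of DMSO stocks, dried, then infested with N2 nymphs. Mortality and growth inhibition scored against untreated samples 5 days after infestation; application rate 200 ppm.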

[3] = system: Myzus persicae; experiment: Myzus persicae (green peach aphid): feeding/contact activity; conditions: 144 h, application rate 200 ppm, aphid population of mixed ages, 6 days after infestation, read-out: mortality
Protocol: (§1) Sunflower leaf discs were placed onto agar in a 24-well microtiter plate and sprayed with aqueous test solutions prepared from 10'000 ppm DMSO stock solutions. After drying, the leaf discs were infested with an aphid population of mixed ages. The samples were assessed for mortality 6 days after infestation.

[4] = system: Plutella xylostella; experiment: Plutella xylostella (diamond back moth), artificial diet; conditions: 120 h, application rate 200 ppm, L2 larvae, 5 days after infestation, read-out: effect in at least one of the two categories (mortality or growth inhibition)
Method in brief: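 Artificial diet in 24-well plates treated with aqueous test solutions made from 10'000 ppm DMSO stocks, dried, then infested with L2 larvae (10 to 15 per well). Mortality and growth inhibition scored against untreated samples 5 days after infestation; activity cut-off at least 80% in either category at 200 ppm.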

[5] = system: Spodoptera littoralis; experiment: Spodoptera littoralis (Egyptian cotton leaf worm), sprayed cotton leaf discs; conditions: foliar, 72 h, application rate 200 ppm, L1 larvae, 3 days after infestation, read-out: control (mortality, anti-feeding effect, growth inhibition)
Method in brief: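 Cotton leaf discs on agar sprayed with aqueous test solutions made from 10'000 ppm DMSO stock; after drying, infested with five L1 larvae. Mortality, anti-feeding and growth inhibition scored versus untreated samples 3 days after infestation; control counted when any category exceeds untreated.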

[6] = system: Spodoptera littoralis; experiment: Spodoptera littoralis (Egyptian cotton leaf worm), uptake by lettuce roots from agar; conditions: 144 h, read-out: effect in at least one of the three categories (mortality, anti-feeding, or growth inhibition)
Method in brief: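 Compound from 10'000 ppm DMSO stocks was mixed into agar, and lettuce grew on it for 7 days to take it up via roots. Cut leaves were infested with Spodoptera eggs; mortality, anti-feedant effect and growth inhibition scored 6 days later versus untreated samples.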

[7] = system: Tetranychus urticae; experiment: Tetranychus urticae (two-spotted spider mite): feeding/contact activity; conditions: 192 h, application rate 200 ppm, mixed population (mobile stages), 8 days after infestation, read-out: mortality
Protocol: Bean leaf discs on agar in 24-well microtiter plates were sprayed with aqueous test solutions prepared from 10'000 ppm DMSO stock solutions. After drying the leaf discs were infested with a mite population of mixed ages. The samples were assessed for mortality on mixed population (mobile stages) 8 days after infestation.

[8] = system: Thrips tabaci; experiment: Thrips tabaci (onion thrips): feeding/contact activity; conditions: 144 h, application rate 200 ppm, Thrips population of mixed ages, 6 days after infestation, read-out: mortality
Protocol: as §1, with “on” for “onto”, “in” for “in a”, “plates” for “plate”, “drying” for “drying,”, “a Thrips” for “an aphid”

CCNS(=O)(=O)N1C[C@@H](NC(=O)c2ccc(C3=NO[C@@](c4cc(Cl)c(Cl)c(Cl)c4)(C(F)(F)F)C3)cc2C)CO1 [Compound A136, N-[(4R)-2-(ethylsulfamoyl)isoxazolidin-4-yl]-2-methyl-4-[(5S)-5-(3,4,5-trichlorophenyl)-5-(trifluoromethyl)-4H-isoxazol-3-yl]benzamide]
≥ 80%: percent effect (mortality or growth inhibition) at 200 ppm [1] | percent effect (mortality or growth inhibition) at 200 ppm [2] | mortality at 200 ppm [3] | percent effect (mortality or growth inhibition) at 200 ppm [4] | mortality at 200 ppm [5] | percent control (mortality, anti-feedant effect or growth inhibition) at 12.5 ppm [6] | mortality at 200 ppm [7] | mortality at 200 ppm [8]

Cc1cc(C2=NO[C@@](c3cccc(C(F)(F)F)c3)(C(F)(F)F)C2)ccc1C(=O)N[C@H]1CON(S(=O)(=O)N(C)C)C1 [Compound A111]
≥ 80%: percent effect (mortality or growth inhibition) at 200 ppm [1] | percent effect (mortality or growth inhibition) at 200 ppm [2] | mortality at 200 ppm [3] | percent effect (mortality or growth inhibition) at 200 ppm [4] | mortality at 200 ppm [5] | percent effect (mortality, anti-feeding or growth inhibition) at 12.5 ppm ([6]; test rate 12.5 ppm, eggs, 6 days after infestation) | mortality at 200 ppm [7] | mortality at 200 ppm [8]

CNS(=O)(=O)N1C[C@@H](NC(=O)c2ccc(C3=NO[C@@](c4cc(Cl)cc(Cl)c4)(C(F)(F)F)C3)cc2C)CO1 [Compound A139, 4-[(5S)-5-(3,5-dichlorophenyl)-5-(trifluoromethyl)-4H-isoxazol-3-yl]-2-methyl-N-[(4R)-2-(methylsulfamoyl)isoxazolidin-4-yl]benzamide]
≥ 80%: percent effect (mortality or growth inhibition) at 200 ppm [1] | percent effect (mortality or growth inhibition) at 200 ppm [2] | mortality at 200 ppm [3] | percent effect (mortality or growth inhibition) at 200 ppm [4] | mortality at 200 ppm [5] | percent control (mortality, anti-feedant effect or growth inhibition) at 12.5 ppm [6] | mortality at 200 ppm [7] | mortality at 200 ppm [8]

CCNS(=O)(=O)N1CC(NC(=O)c2ccc(C3=NO[C@@](c4cc(Cl)c(F)c(Cl)c4)(C(F)(F)F)C3)cc2C)CO1 (stereo partly drawn) [Compound A95]
≥ 80%: percent effect (mortality or growth inhibition) at 200 ppm [1] | percent effect (mortality or growth inhibition) at 200 ppm [2] | mortality at 200 ppm [3] | percent effect (mortality or growth inhibition) at 200 ppm [4] | mortality at 200 ppm [5] | percent control (mortality, anti-feedant effect or growth inhibition) at 12.5 ppm [6] | mortality at 200 ppm [7] | mortality at 200 ppm [8]

Cc1cc(C2=NO[C@@](c3cc(Cl)c(F)c(Cl)c3)(C(F)(F)F)C2)ccc1C(=O)NC1CON(S(=O)(=O)CCC(F)(F)F)C1 (stereo partly drawn) [Compound A11]
≥ 80%: percent effect (mortality or growth inhibition) at 200 ppm [1] | percent effect (mortality or growth inhibition) at 200 ppm [2] | mortality at 200 ppm [3] | percent effect (mortality or growth inhibition) at 200 ppm [4] | mortality at 200 ppm [5] | percent control (mortality, anti-feedant effect or growth inhibition) at 12.5 ppm [6] | mortality at 200 ppm [7] | mortality at 200 ppm [8]

CNS(=O)(=O)N1C[C@@H](NC(=O)c2ccc(C3=NO[C@@](c4cc(Cl)cc(C(F)(F)F)c4)(C(F)(F)F)C3)cc2C)CO1 [Compound A138]
≥ 80%: percent effect (mortality or growth inhibition) at 200 ppm [1] | percent effect (mortality or growth inhibition) at 200 ppm [2] | mortality at 200 ppm [3] | percent effect (mortality or growth inhibition) at 200 ppm [4] | mortality at 200 ppm [5] | percent control (mortality, anti-feedant effect or growth inhibition) at 12.5 ppm [6] | mortality at 200 ppm [7] | mortality at 200 ppm [8]

CCS(=O)(=O)N1C[C@@H](NC(=O)c2ccc(C3=NO[C@@](c4cc(Cl)cc(C(F)(F)F)c4)(C(F)(F)F)C3)cc2C)CO1 [Compound A120, 4-[(5S)-5-[3-chloro-5-(trifluoromethyl)phenyl]-5-(trifluoromethyl)-4H-isoxazol-3-yl]-N-[(4R)-2-ethylsulfonylisoxazolidin-4-yl]-2-methyl-benzamide]
≥ 80%: percent effect (mortality or growth inhibition) at 200 ppm [1] | percent effect (mortality or growth inhibition) at 200 ppm [2] | mortality at 200 ppm [3] | percent effect (mortality or growth inhibition) at 200 ppm [4] | mortality at 200 ppm [5] | percent control (mortality, anti-feedant effect or growth inhibition) at 12.5 ppm [6] | mortality at 200 ppm [7] | mortality at 200 ppm [8]

Cc1cc(C2=NO[C@@](c3cc(Cl)cc(C(F)(F)F)c3)(C(F)(F)F)C2)ccc1C(=O)NC1CON(S(C)(=O)=O)C1 (stereo partly drawn) [Compound A20]
≥ 80%: percent effect (mortality or growth inhibition) at 200 ppm [1] | percent effect (mortality or growth inhibition) at 200 ppm [2] | mortality at 200 ppm [3] | percent effect (mortality or growth inhibition) at 200 ppm [4] | mortality at 200 ppm [5] | percent control (mortality, anti-feedant effect or growth inhibition) at 12.5 ppm [6] | mortality at 200 ppm [7] | mortality at 200 ppm [8]

CCS(=O)(=O)N1C[C@@H](NC(=O)c2ccc(C3=NO[C@@](c4cc(Cl)cc(C(F)(F)F)c4)(C(F)(F)F)C3)cc2Cl)CO1 [Compound A122]
≥ 80%: percent effect (mortality or growth inhibition) at 200 ppm [1] | percent effect (mortality or growth inhibition) at 200 ppm [2] | mortality at 200 ppm [3] | percent effect (mortality or growth inhibition) at 200 ppm [4] | mortality at 200 ppm [5] | percent control (mortality, anti-feedant effect or growth inhibition) at 12.5 ppm [6] | mortality at 200 ppm [7] | mortality at 200 ppm [8]
